Assay [1] deals with T1, human recombinant H-PGDS (Homo sapiens, UniProt O60760). Briefly: Fluorescence intensity h-PGDS TBA enzyme assay. The conditions noted are these: Examples up to 622 (and 3a, 3b). In kind it is biochemical.
The subject of assay [2] is A. suum antigen-induced asthmatic response in conscious sheep. Briefly: In vivo assay, anti-asthmatic effects in a sheep model of asthma. The conditions noted are these: i.v. infusion, single dose of 1, 0.3 or 0.1 mg/kg, specific lung resistance (RL). An excerpt: In vivo Assay—Anti-Asthmatic Effects in a Sheep Model of Asthma A validated model of A. suum antigen-induced asthmatic response in conscious sheep was used to evaluate the pharmacokinetic properties, inhibition of antigen-induced early and late airway bronchoconstriction in the lung by compound (Abraham, W. M., et al., Am Rev Respir Dis 1991; 143:787-796). […] An aerosol of A. suum extract, generated using a disposable medical nebulizer (Raindrop®, Puritan Bennett) was delivered in at a tidal volume of 500 mL and a rate of 20 breaths/min. A compound of Example 2 was delivered by i.v. infusion over the interval t=0-20 min prior to antigen challenge. A single dose of 1, 0.3 or 0.1 mg//kg was evaluated. Baseline and post-drug measurements of specific lung resistance (RL) were obtained immediately prior to challenge (t=30 min) with A. suum antigen, immediately after challenge and then hourly from 1 to 6 h post challenge and on the half-hour from 6.5, 5-8 h post challenge. Measurements of RL were obtained 24 h post challenge, followed by the 24 h post-challenge dose-response curve for carbachol. […] To assess airway responsiveness, the cumulative carbachol dose in breath units (BU) that increased RL 400% over the post-buffer value (i.e., PC400) were calculated from the dose-response curve. […]

For assay [3], the target named is T1, human recombinant H-PGDS. As to the kind of experiment: Slightly modified h-PGDS TBA enzyme assay (Examples 623 onwards). In kind it is biochemical. As to the method:
Prostaglandin D Synthase (PGDS) converts the substrate prostaglandin H2 (PGH2) to prostaglandin D2.
Examples 623 onwards were tested in a slightly modified assay: The enzyme assay (30 μls during biological process) contained 100 mM Trizma pH 8.0, 100 μM MgCl2, 0.1 mg/ml IgG Rabbit serum, 5.0 μM PGH2 (Cayman; ethanol solution, #17020), 2.5 mM L-Glutathione (Sigma; reduced form #G4251), 1:40,000 human recombinant H-PGDS (from 1 mg/ml), 0.5% DMSO and inhibitor (varying concentration). 3 μls of diluted inhibitor (dissolved in DMSO) was plated into a 384-well assay plate followed by a 24 μl addition of an enzyme solution containing h-PGDS, Trizma, MgCl2, IgG and L-Glutathione. After pre-incubation of inhibitor and enzyme solution for 10 minutes at room temperature, the reaction was initiated with a 3 μl addition of substrate solution in 10 mM HCl. The reaction was terminated after 40 second by the addition of 3 μl stop buffer containing FeCl2 and citric acid. After addition of 45 μl of TBA plates were heated for one hour in a 70° C. oven. Plates were cooled at room temperature overnight and read on a plate reader the next day with excitation @ 530 nm and emission @ 560 nm. IC50's of inhibitors were calculated with a 4-parameter fit using 11 inhibitor concentrations in duplicate with 1/2 log serial dilutions. […] The highest inhibitor concentration tested was typically 10 μM.

Each structure is given as a SMILES string. Where a name gives a salt, the structure may show the parent alone.

T1 sequence (O60760 whole entry, the tested form may be a part): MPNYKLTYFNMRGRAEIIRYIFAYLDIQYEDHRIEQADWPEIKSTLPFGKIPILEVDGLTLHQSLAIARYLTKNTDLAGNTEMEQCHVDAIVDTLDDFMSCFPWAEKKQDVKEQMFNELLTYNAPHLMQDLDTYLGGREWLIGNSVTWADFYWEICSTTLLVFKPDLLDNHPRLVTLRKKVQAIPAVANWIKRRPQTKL

One may read the IC50 as the concentration needed to halve the response being measured. In the case of `O=C(NC1CCN(CC(F)(F)F)CC1)c1ccc(-c2cccc(F)c2)nc1` [Example 2, 6-(3-Fluorophenyl)-N-(1-(2,2,2-trifluoroethyl)piperidin-4-yl)nicotinamide], at human recombinant H-PGDS [1], the IC50 amounted to 0.852 nM. Also, in assay [2], the “early airway response (0-2 h after allergen challenge)” value is recorded as “not reduced” and the “late airway response (4-8 h after antigen challenge) inhibited” value is “approximately 60%”. For `CCOC(=O)N1CCC(NC(=O)c2ccc(-c3ccccc3O)nc2)CC1` [Example 628], the half-inhibitory concentration (IC50) on human recombinant H-PGDS [3] came out at 6.22 nM.

`CCCN1C[C@@H]2[C@H](C1)[C@H]2NC(=O)c1ccc(-c2cccc(F)c2)nc1` [Example 655]: the IC50 at human recombinant H-PGDS [3] came to 66.8 nM. As for `CC(C)(C)C(=O)N1CCC(NC(=O)c2ccc(-c3ccccc3O)nc2)CC1` [Example 627], the concentration for half-maximal inhibition (IC50) at human recombinant H-PGDS [3] came to 6.75 nM.

Consider `O=C(N[C@H]1[C@@H]2CNC[C@@H]21)c1ccc(-c2cccc(F)c2)nc1` [Example 653, N-[(1R,5S,6s)-3-azabicyclo[3.1.0]hex-6-yl]-6-(3-fluorophenyl)nicotinamide di-hydrochloride], for which the IC50 at human recombinant H-PGDS [3] came out at 177 nM. Same read-out and setting: the same measure for `O=C(NC1CCN(CC(F)(F)F)CC1)c1ccc(-c2cc(F)ccc2O)nc1` [Example 635]: 10.9 nM; for `O=C(NC1CCN(c2cccnn2)CC1)c1ccc(-c2ccccc2O)nc1` [Example 632]: 5.57 nM; for `CC(C)S(=O)(=O)N1CCC(NC(=O)c2ccc(-c3ccccc3O)nc2)CC1` [Example 633]: 16.6 nM. On the same count and under the same terms, next, `CCN1CCC(NC(=O)c2ccc(-c3cc(F)ccc3O)nc2)CC1` [Example 640]: 129 nM; `O=C(N[C@H]1[C@@H]2CN(CC(F)(F)F)C[C@@H]21)c1ccc(-c2cccc(F)c2)nc1` [Example 651, 6-(3-Fluorophenyl)-N-((1R,5S,6S)-3-(2,2,2-trifluoroethyl)-3-aza-bicyclo[3.1.0]hexan-6-yl)nicotinamide]: 2.01 nM. The same measure, in the same setting: next, `O=C(NC1CCN(CC2CC2)CC1)c1ccc(-c2ccccc2O)nc1` [Example 629]: 22.2 nM; `CCCN1CCC(NC(=O)c2ccc(-c3cc(F)ccc3O)nc2)CC1` [Example 638]: 83.3 nM. Take `CC(C)(C)C(=O)N1CCC(NC(=O)c2ccc(-c3cc(F)ccc3O)nc2)CC1` [Example 636]: the IC50 on human recombinant H-PGDS [3] is 17.2 nM. Same read-out and setting: next, `CC(=O)N1C[C@@H]2[C@H](C1)[C@H]2NC(=O)c1ccc(-c2cccc(F)c2)nc1` [Example 654, N-[(1R,5S,6s)-3-acetyl-3-azabicyclo[3.1.0]hex-6-yl]-6-(3-fluorophenyl)nicotinamide]: 33.8 nM; `CCCN1CCC(NC(=O)c2ccc(-c3ccccc3O)nc2)CC1` [Example 631]: 82.4 nM. On the same count and under the same terms, the same measure for `N#Cc1cccc(-c2ccc(C(=O)NC3CCN(CC(F)(F)F)CC3)cn2)c1` [Example 623, 6-(3-Cyanophenyl)-N-[1-(2,2,2-trifluoroethyl)piperidin-4-yl]nicotinamide]: 104 nM; for `O=C1CC(NC(=O)c2ccc(-c3cccc(F)c3)nc2)c2ccccc2N1` (stereo not drawn) [Example 650, 6-(3-Fluorophenyl)-N-(2-oxo-1,2,3,4-tetrahydroquinolin-4-yl)nicotinamide]: 0.568 nM.

For the compound `O=C(NC1CCN(c2cccnn2)CC1)c1ccc(-c2cc(F)ccc2O)nc1` [Example 639], the IC50 at human recombinant H-PGDS [3] was determined as 10000 nM. The same measure, in the same setting: the same measure for `Cn1nnnc1N1CCC(NC(=O)c2ccc(-c3ccccc3O)nc2)CC1` [Example 634]: 6.13 nM.

Values taken from US7902373B2 (Pfizer Inc, priority 2006, dated 2011).
